Source: patent US9216171B2, “Methods of preventing ischemic injury using peripheral nociceptive stimulation” (University of Cincinnati, priority 2009, dated 2015)

Experiments:
Format in all cases: in vivo
TRPV1 = target: T1, TRPV1 (Mus musculus, UniProt Q704Y3); test: Topical capsaicin before ischemia/reperfusion in wild-type vs TRPV1 knock-out mice; settings: capsaicin topically administered to the abdomen prior to ischemia and reperfusion; FIG. 2E
T1 construct: data from wild-type mice topically treated with capsaicin administered to the abdomen prior to surgical induction of ischemia and reperfusion; from tissue; host or cells: Living wild-type mouse; abdominal skin nociceptors (C-fibers), in vivo
T1 sequence (Q704Y3 whole entry, the tested form may be a part): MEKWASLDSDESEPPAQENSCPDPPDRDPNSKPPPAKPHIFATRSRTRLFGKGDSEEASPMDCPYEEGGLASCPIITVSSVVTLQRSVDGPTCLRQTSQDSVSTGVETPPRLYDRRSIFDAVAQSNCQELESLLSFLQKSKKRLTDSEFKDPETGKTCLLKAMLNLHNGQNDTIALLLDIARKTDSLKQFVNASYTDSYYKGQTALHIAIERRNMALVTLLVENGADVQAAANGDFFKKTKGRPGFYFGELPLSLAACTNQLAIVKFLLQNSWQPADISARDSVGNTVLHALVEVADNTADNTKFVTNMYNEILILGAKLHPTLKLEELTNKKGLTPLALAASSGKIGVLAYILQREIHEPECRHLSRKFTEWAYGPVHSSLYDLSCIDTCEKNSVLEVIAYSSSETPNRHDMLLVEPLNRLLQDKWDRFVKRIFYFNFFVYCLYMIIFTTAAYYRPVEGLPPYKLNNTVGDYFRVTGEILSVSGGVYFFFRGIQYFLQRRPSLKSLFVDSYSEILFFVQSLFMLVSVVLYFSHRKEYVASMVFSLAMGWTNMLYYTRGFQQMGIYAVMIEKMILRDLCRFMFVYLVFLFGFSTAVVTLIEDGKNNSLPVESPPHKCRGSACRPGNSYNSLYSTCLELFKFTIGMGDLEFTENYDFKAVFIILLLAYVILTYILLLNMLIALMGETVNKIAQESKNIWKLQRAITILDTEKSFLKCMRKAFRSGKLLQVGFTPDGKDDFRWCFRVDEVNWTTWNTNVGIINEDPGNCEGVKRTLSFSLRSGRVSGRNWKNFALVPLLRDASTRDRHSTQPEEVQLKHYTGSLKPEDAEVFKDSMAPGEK
Text: FIG. 2, panel E presents a graph of results obtained from wild-type (WT) and TRPV1 knock-out (TRPVKO) mice using topical capsaicin as the cardioprotective stimulus. Infarct size as a percent of risk region is presented on the y-axis. The first bar presents data from wild-type mice topically treated with capsaicin administered to the abdomen prior to surgical induction of ischemia and reperfusion (WT, Capsaicin, hatched bar). The second bar presents data from TRPV1 knockout mice topically treated with capsaicin administered to the abdomen prior to surgical induction of ischemia and reperfusion (TRPVKO, Capsaicin, dotted bar). The third bar presents data from TRPV1 knockout mice subjected to sham treatment prior to surgical induction of ischemia and reperfusion (TRPVKO No capsaicin, empty bar).
Mice were anesthetized with sodium pentobarbital (90 mg/kg ip), intubated with PE 90 tubing and ventilated using a mouse miniventilator (Harvard Apparatus, Holliston, Mass.). All mice were continuously monitored by electrocardiography (ECG) (DigiMed Sinus Rhythm Analyzer, Micro-Med Inc), and mice without evidence of ischemia and timely reperfusion were excluded from the studies. […]

[1] = system: murine ischemia/reperfusion model of myocardial infarction; test: Mouse ischemia/reperfusion model: infarct size after remote topical TRP agonist
Procedure: A previously described mouse model of ischemia and reperfusion (I/R) injury in vivo was used (Ren et al. (2004) J. Surg Res. 121(1):120-129; Fan et al (2005) Circulation 111(14):1792-1799; Zhou et al (2007) Cardiovascular Research 75(3) 487-497; and Diwan et al (2007) J. Clinical Investigation 117(10):2825-2833, herein incorporated by reference in their entirety). Mice were anesthetized with sodium pentobarbital (90 mg/kg ip), intubated with PE 90 tubing and ventilated using a mouse miniventilator (Harvard Apparatus, Holliston, Mass.). All mice were continuously monitored by electrocardiography ([…] Sinus Rhythm Analyzer, Micro-Med Inc), and mice without evidence of ischemia and timely reperfusion were excluded from the studies. A lateral thoracotomy (1.5 cm incision between the second and third ribs was performed to provide exposure of the left anterior descending coronary artery (LAD). Vascular bundles in the vicinity were coagulated using a microcoagulator (Medical Industries Inc, St. Petersburg Fla.). An 8-0 nylon suture was placed around the LAD 2-3 mm from the tip of the left auricle and a piece of soft silicon tubing (0.64 mm ID, 1.19 mm OD) was placed over the artery. Coronary occlusion was achieved by tightening and tying the suture. Coronary occlusion was for 45 minutes, unless indicated otherwise. At the end of the occlusion, the suture was untied and left in place. Ischemia was confirmed by visual observation of cyanosis and by continuous ECG monitoring (QRS complex widening, T wave inversion and ST segment changes); reperfusion was confirmed by reversal of these effects. Results of one such experiment are presented in FIG. 1, panel A. Mice were euthanized either 4 or 24 hours after reperfusion and infarct size determination and imaging were performed by previously described methods (Ren et al. (2004) J. Surg Res. 121(1):120-129 and Guo et al (1998) Am J. Physiology 275 (4 Pt 2):[…]-1387, herein incorporated by reference in their entirety). Mice were anesthetized with pentobarbital sodium (35 mg/kg iv) and euthanized with an intravenous bolus of KCl. The heart was excised and perfused with Krebs-Henseleit solution through an aortic cannula (22 or 23-gauge needle) using a Langerdorff apparatus. To delineate infarcted from viable myocardium, the heart was then perfused with a 1% solution of 2,3,5-triphenyltetrazolium chloride (TTC) in phosphate buffer (pH 7.4, 37° C.) at a pressure of […] (approx. 3 ml over 3 min). […] Infarct size was determined by the method of Fishbein et al (1981) Am Heart J 101(5):593-600, herein incorporated by reference in its entirety. […] Infarct size was determined as described elsewhere herein. […]

[2] = system: murine ischemia/reperfusion model of myocardial infarction; test: Blockade of the cardioprotection by remote electrical stimulation in mouse ischemia/reperfusion model
Procedure: A previously described mouse model of ischemia and reperfusion (I/R) injury in vivo was used (Ren et al. (2004) J. Surg Res. 121(1):120-129; Fan et al (2005) Circulation 111(14):1792-1799; Zhou et al (2007) Cardiovascular Research 75(3) 487-497; and Diwan et al (2007) J. Clinical Investigation 117(10):2825-2833, herein incorporated by reference in their entirety). Mice were anesthetized with sodium pentobarbital (90 mg/kg ip), intubated with PE 90 tubing and ventilated using a mouse miniventilator (Harvard Apparatus, Holliston, Mass.). All mice were continuously monitored by electrocardiography (ECG) (DigiMed Sinus Rhythm Analyzer, Micro-Med Inc), and mice without evidence of ischemia and timely reperfusion were excluded from the studies.
A lateral thoracotomy (1.5 cm incision between the second and third ribs was performed to provide exposure of the left anterior descending coronary artery (LAD). Vascular bundles in the vicinity were coagulated using a microcoagulator (Medical Industries Inc, St. Petersburg Fla.). An 8-0 nylon suture was placed around the LAD 2-3 mm from the tip of the left auricle and a piece of soft silicon tubing (0.64 mm ID, 1.19 mm OD) was placed over the artery. Coronary occlusion was achieved by tightening and tying the suture. Coronary occlusion was for 45 minutes, unless indicated otherwise. At the end of the occlusion, the suture was untied and left in place. Ischemia was confirmed by visual observation of cyanosis and by continuous ECG monitoring (QRS complex widening, T wave inversion and ST segment changes); reperfusion was confirmed by reversal of these effects.
Mice were euthanized either 4 or 24 hours after reperfusion and infarct size determination and imaging were performed by previously described methods (Ren et al. (2004) J. Surg Res. 121(1):120-129 and Guo et al (1998) Am J. Physiology 275 (4 Pt 2):H1375-1387, herein incorporated by reference in their entirety). Mice were anesthetized with pentobarbital sodium (35 mg/kg iv) and euthanized with an intravenous bolus of KCl. The heart was excised and perfused with Krebs-Henseleit solution through an aortic cannula (22 or 23-gauge needle) using a Langerdorff apparatus. To delineate infarcted from viable myocardium, the heart was then perfused with a 1% solution of 2,3,5-triphenyltetrazolium chloride (TTC) in phosphate buffer (pH 7.4, 37° C.) at a pressure of […] (approx. 3 ml over 3 min). To delineate the occluded-reperfused coronary vascular bed, the coronary artery was then tied at the site of the previous occlusion and the aortic root was perfused with a 5% solution of phthalo blue dye in normal saline. […] Infarct size was determined by the method of Fishbein et al (1981) Am Heart J 101(5):593-600, herein incorporated by reference in its entirety. […]

SMILES: COc1cc(CNC(=O)CCCC/C=C/C(C)C)ccc1O [capsaicin, (6E)-N-[(4-Hydroxy-3-methoxyphenyl)methyl]-8-methyl-6-nonenamide]
- infarct size as a percent of risk region, WT vs TRPVKO (TRPV1): reduced myocardial infarct size as compared to TRPVKO mice
- reduction of infarct size (infarct size as a percent of the risk region) ([1]; remote pre-conditioning, stimulus given 15 minutes prior to the ischemia, abdominal topical, vs sham, n=6, P<0.01): 85%
- infarct size as a percent of the risk region ([1]; remote pre-treatment prior to ischemia/reperfusion, vs sham, FIG. 1C): substantial reduction in infarct size
- infarct size as a percent of risk area ([1]; topical application during ischemia (conditioning) or after reperfusion (postCON), vs sham, p<0.01, FIG. 10): significantly reduces infarct size

SMILES: COc1ccc2c(c[n+](C)c3c4cc5c(cc4ccc23)OCO5)c1OC [chelerythrine]
- inhibition of ischemia-related tissue damage (infarct size as a percentage of risk region) ([2]; chelerythrine plus ES vs vehicle plus ES, FIG. 3C): reduced inhibition of ischemia-related tissue damage

SMILES: CCN(CC)CC(=O)Nc1c(C)cccc1C [lidocaine]
- infarct size as a percent of risk region ([2]; 2% lidocaine prior to electrical stimulation (ES) and ischemia, vs vehicle ES, FIG. 2A): significantly higher percentage of risk region than infarction size in vehicle and ES treated mice
- cardioprotective effect of the remote electrical stimulation ([2]; 10 μl lidocaine (2%) s.c. pre-treatment, 45 min occlusion): no significant cardioprotection relative to controls

SMILES: CCCN(CCC)S(=O)(=O)c1ccc(C(=O)O)cc1 [probenecid]
- infarct size as a percent of risk region ([1]; topical probenecid application vs sham/control animals, p<0.07, FIG. 11): significantly reduced

SMILES: CC(C)NCC(O)COc1cccc2ccccc12 (stereo not drawn) [propanolol]
- infarct size as a percentage of risk region ([2]; propanolol plus ES vs vehicle plus ES, FIG. 3B): significantly higher than infarct size in control mice treated only with the vehicle and electrically stimulated
